# “And” between values parts separate entries of the source, which are not always exact repeats. Identical values can stand only once.
# Tests used:
# P. granulosum PRP-043 [1] = experiment: Disc diffusion assay (DDA), also supplemented; format: cell-based; details: 200 μg per disc
# Description: (§4) The propionibacteria were cultured and maintained on Wilkins-Chalgren Anaerobe Medium (agar and broth) at pH 6.0; all cultures were incubated anaerobically at 37° C. for 72 hours.
# (§5) A sterile paper disc was impregnated with a sample of the test compound in a suitable solvent and 30 minutes allowed for the solvents to evaporate (where possible). The disc was then placed on an agar plate onto which the test micro-organism had been inoculated. The plate was then incubated under the conditions described above, following which it was examined visually for signs of bacterial growth. […] The diameter of this zone of “inhibition” was measured using a ProtoCOL™ automated zone sizer (Synbiosis, Cambridge, UK).
# (§6) For assays using Propionibacterium spp. strains the supplements used in the examples below were lipid (either Tween™ 80 or triolein, both at 1% v/v) and sodium chloride (100 mM).
# P. granulosum PRP-006 [2] = experiment: Disc diffusion assay (DDA), also supplemented; format: cell-based; details: 200 μg per disc
# Description: as §4, §5, §6
# P. acnes NCTC 737 = experiment: Disc diffusion assay (DDA), also supplemented;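 also: paper disc carrying compound placed on inoculated Wilkins-Chalgren Anaerobe agar pH 6.0, with lipid or NaCl supplement where listed, anaerobic 37 °C for 72 h, inhibition zone diameter read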
# P. acnes PRP-026 [3] = experiment: Disc diffusion assay (DDA), also supplemented; format: cell-based, Propionibacterium acnes; details: 200 μg per disc
# Description: as §4, §5, §6
# P. acnes PRP-023 = P. acnes PRP-023 (resistance MLSK); agar dilution
# Description: (§1) This is a standard international method for quantitatively assessing the antimicrobial activity of a compound in a solid medium. […] A set amount of these antimicrobial stock solutions was then added to molten agar medium (ca. 55° C.), mixed thoroughly, poured into sterile Petri dishes and allowed to cool/set. The culture medium was as described above.
# (§2) A Multipoint™ Inoculator (AQS Manufacturing Ltd, UK) was used to inoculate the plates by spotting the inocula onto the surface of the agar, delivering approximately 1 to 2 μl per spot (yielding 10^5 CFU (colony forming units) per spot).
# (§3) The plate(s) were then incubated under the conditions described above, following which they were examined visually for signs of bacterial growth. The MIC value was ascertained when there was a marked reduction in, or total loss of, growth on the test plate at the lowest concentration as compared to that of the growth on the control plate.
# P. granulosum PRP-021 = P. granulosum PRP-021 (resistance MLS); agar dilution
# Description: as §1, §2, §3
# P. acnes PRP-003 = P. acnes PRP-003 (resistance Tet); agar dilution
# Description: as §1, §2, §3
# P. granulosum NCTC 11865 = P. granulosum NCTC 11865 (resistance None); agar dilution
# Description: as §1, §2, §3
# P. acnes PRP-053 = P. acnes PRP-053 (resistance Tet/MLS); agar dilution
# Description: as §1, §2, §3
# P. granulosum PRP-019 = P. granulosum PRP-019 (resistance MLSK); agar dilution
# Description: as §1, §2, §3
# P. granulosum PRP-006 [4] = details: P. granulosum PRP-006 (resistance MLS); agar dilution
# Description: as §1, §2, §3
# P. acnes PRP-046 = P. acnes PRP-046 (resistance None); agar dilution
# Description: as §1, §2, §3
# P. acnes PRP-102 = P. acnes PRP-102 (resistance Tet/MLS); agar dilution
# Description: as §1, §2, §3
# P. acnes PRP-101 = P. acnes PRP-101 (resistance Tet/MLS); agar dilution
# Description: as §1, §2, §3
# P. acnes PRP-039 = P. acnes PRP-039 (resistance Tet/MLS); agar dilution
# Description: as §1, §2, §3
# P. acnes PRP-008 = P. acnes PRP-008 (resistance Clin); agar dilution
# Description: as §1, §2, §3
# P. acnes PRP-026 [5] = details: P. acnes PRP-026 (resistance MLS); agar dilution
# Description: as §1, §2, §3
# P. acnes PRP-007 = P. acnes PRP-007 (resistance Clin); agar dilution
# Description: as §1, §2, §3
# P. acnes PRP-004 [6] = details: P. acnes PRP-004 (resistance Tet); agar dilution
# Description: as §1, §2, §3
# P. acnes PRP-010 = P. acnes PRP-010 (resistance MLSK); agar dilution
# Description: as §1, §2, §3
# P. granulosum PRP-005 = P. granulosum PRP-005 (resistance MLSK); agar dilution
# Description: as §1, §2, §3
# P. granulosum PRP-043 [7] = details: P. granulosum PRP-043 (resistance MLS); agar dilution
# Description: as §1, §2, §3
# P. acnes PRP-059 = P. acnes PRP-059 (resistance MLS); agar dilution
# Description: as §1, §2, §3
# P. granulosum PRP-044 [8] = details: P. granulosum PRP-044 (resistance MLS); agar dilution
# Description: as §1, §2, §3
# P. acnes PRP-002 = P. acnes PRP-002 (resistance Tet/MLS); agar dilution
# Description: as §1, §2, §3
# P. granulosum PRP-055 = P. granulosum PRP-055 (resistance None); agar dilution
# Description: as §1, §2, §3
# P. acnes PRP-068 = P. acnes PRP-068 (resistance Ery); agar dilution
# Description: as §1, §2, §3
# P. acnes PRP-017 = P. acnes PRP-017 (resistance MLS); agar dilution
# Description: as §1, §2, §3
# P. acnes PRP-004 [9] = experiment: Disc diffusion assay (DDA), also supplemented; format: cell-based, Propionibacterium acnes; details: 200 μg per disc
# Description: as §4, §5, §6
# P. granulosum PRP-044 [10] = experiment: Disc diffusion assay (DDA), also supplemented; format: cell-based; details: 200 μg per disc
# Description: as §4, §5, §6
structure (smiles),measurement,setting,value
O.O.O.O.O.O=S(=O)([O-])[O-].[Cu+2] [Copper (II) sulphate pentahydrate],DDA + salt,P. granulosum PRP-043 [1],50.17 mm
same,DDA + lipid,P. granulosum PRP-043 [1]; 1% (v/v) triolein,41.35 mm
same,DDA,P. granulosum PRP-043 [1]; single replicate,46.82 mm
same,DDA,P. granulosum PRP-043 [1]; Table 12 series,56.56 mm
same,DDA + salt,P. granulosum PRP-006 [2],37.09 mm
same,DDA + lipid,P. granulosum PRP-006 [2]; 1% (v/v) triolein,30.71 mm
same,DDA,P. granulosum PRP-006 [2]; single replicate,31.62 mm
same,DDA,P. granulosum PRP-006 [2]; Table 12 series,27.91 mm
same,DDA,P. acnes NCTC 737,49.75 mm and 42.05 (±1.16) mm
same,DDA + lipid,P. acnes NCTC 737,44.03 mm
same,DDA + salt,P. acnes NCTC 737,50.28 mm
same,DDA + salt & lipid,P. acnes NCTC 737,49.96 mm and 49.54 (±1.34) mm
same,DDA + salt,P. acnes PRP-026 [3],52.90 mm
same,DDA + lipid,P. acnes PRP-026 [3]; 1% (v/v) triolein,53.21 mm
same,DDA,P. acnes PRP-026 [3]; single replicate,51.08 mm
same,DDA,P. acnes PRP-026 [3]; Table 12 series,56.14 mm
same,MIC,P. acnes PRP-023,7.8 µg/mL
same,MIC,P. granulosum PRP-021,62.5 µg/mL
same,MIC,P. acnes PRP-003,7.8 µg/mL
same,MIC,P. granulosum NCTC 11865,7.8 µg/mL
same,MIC,P. acnes PRP-053,7.8 µg/mL
same,MIC,P. granulosum PRP-019,62.5 µg/mL
same,MIC,P. granulosum PRP-006 [4],62.5 µg/mL
same,MIC,P. acnes PRP-046,7.8 µg/mL
same,MIC,P. acnes PRP-102,7.8 µg/mL
same,MIC,P. acnes PRP-101,7.8 µg/mL
same,MIC,P. acnes PRP-039,7.8 µg/mL
same,MIC,P. acnes PRP-008,7.8 µg/mL
same,MIC,P. acnes PRP-026 [5],7.8 µg/mL
same,MIC,P. acnes PRP-007,7.8 µg/mL
same,MIC,P. acnes PRP-004 [6],7.8 µg/mL
same,MIC,P. acnes PRP-010,7.8 µg/mL
same,MIC,P. granulosum PRP-005,62.5 µg/mL
same,MIC,P. granulosum PRP-043 [7],7.8 µg/mL
same,MIC,P. acnes PRP-059,7.8 µg/mL
same,MIC,P. granulosum PRP-044 [8],62.5 µg/mL
same,MIC,P. acnes PRP-002,7.8 µg/mL
same,MIC,P. granulosum PRP-055,62.5 µg/mL
same,MIC,P. acnes PRP-068,7.8 µg/mL
same,MIC,P. acnes PRP-017,7.8 µg/mL
same,DDA + salt,P. acnes PRP-004 [9],52.60 mm
same,DDA + lipid,P. acnes PRP-004 [9]; 1% (v/v) triolein,45.61 mm
same,DDA,P. acnes PRP-004 [9]; single replicate,51.08 mm
same,DDA,P. acnes PRP-004 [9]; Table 12 series,44.85 mm
same,DDA + salt,P. granulosum PRP-044 [10],31.92 mm
same,DDA + lipid,P. granulosum PRP-044 [10]; 1% (v/v) triolein,26.45 mm
same,DDA,P. granulosum PRP-044 [10]; single replicate,27.36 mm
same,DDA,P. granulosum PRP-044 [10]; Table 12 series,27.81 mm

# Reference: patent US20090246292A1, “ANTIMICROBIAL FORMULATIONS COMPRISING A QUINONE AND A COPPER SALT” (priority 2006, published 2009)
